The values that follow come from PubChem BioAssay (NCI).

Some test systems named below: NCI-H23 lung; HT29 colon; UO-31 renal; NCI-H460 lung; OVCAR-4 ovarian; SK-OV-3 ovarian; HCC-2998 colon; ACHN renal; HOP-92 NSCLC; HCT-116 colon.
Assay in all cases: NCI tumour cell line growth inhibition, 48 h

Several values for one entry are separate records, joined by “and”; a condition that tells them apart may be missing. Identical values can stand only once.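 Method: 48-hour compound exposure of cells in 96-well plates, five concentrations, linear interpolation of endpoints. The concentration for 50% growth inhibition is given as GI50. The concentration for full growth arrest is given as TGI.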

`CC(=O)OCC1OC(n2c(-c3ccc(Cl)cc3)ccc(C#N)c2=S)C(OC(C)=O)C(OC(C)=O)C1OC(C)=O` (centres undefined): the GI50 in the test with NCI-H23 lung was 29.3 µM and > 100 µM; in the test on OVCAR-4 ovarian, > 100 µM and 19.9 µM; in the test with SK-OV-3 ovarian, 16.4 µM and 47.9 µM; with HOP-92 NSCLC, 3.96 µM and 22.2 µM. The TGI is over 100 µM in the test with NCI-H23 lung; over 100 µM in the test with HT29 colon; over 100 µM in the test on UO-31 renal; over 100 µM in the test with NCI-H460 lung; > 100 µM and 93.3 µM in the test on OVCAR-4 ovarian; 44.9 µM and > 100 µM in the test with SK-OV-3 ovarian. In addition, the TGI in the test with HCC-2998 colon is over 100 µM; in the test with ACHN renal, over 100 µM; in the test on HOP-92 NSCLC it was 18.8 µM and > 100 µM; in the test on HCT-116 colon it was over 100 µM.

Turning to `Nc1ccc(C2=NN(c3ccccc3)C(c3ccc(Cl)cc3)C2)cc1` (centres undefined), the GI50 was 2.12 µM with NCI-H23 lung; 1.96 µM in the test on HT29 colon; 1.54 µM in the test on UO-31 renal; 3.94 µM in the test on NCI-H460 lung; 4.84 µM in the test with OVCAR-4 ovarian; 9.09 µM with SK-OV-3 ovarian. For the same molecule, the GI50 in the test with HCC-2998 colon is 1.86 µM; in the test with ACHN renal, 1.8 µM; with HOP-92 NSCLC, 2.61 µM; in the test with HCT-116 colon, 1.64 µM. The TGI with NCI-H23 lung was 5.09 µM; with HT29 colon, 4.49 µM; with UO-31 renal, 3.06 µM; in the test with NCI-H460 lung, 16.3 µM; in the test on OVCAR-4 ovarian it was 45.5 µM; in the test on SK-OV-3 ovarian, 29.9 µM. For the same molecule, the TGI with HCC-2998 colon was found to be 3.29 µM; in the test with ACHN renal, 3.57 µM; in the test with HOP-92 NSCLC, 17.3 µM; in the test on HCT-116 colon it was 3.01 µM.

With `C[N-]c1nnnn1C.[Au+].c1ccc([PH+](c2ccccc2)c2ccccc2)cc1`, the GI50 with NCI-H23 lung was 1.97 µM; in the test on HT29 colon it was 2 µM; in the test with UO-31 renal it was 12.7 µM; in the test with NCI-H460 lung it was 8.54 µM; in the test on OVCAR-4 ovarian, 3.19 µM; with SK-OV-3 ovarian it was 13 µM. For the same molecule, the GI50 in the test with HCC-2998 colon was 4.06 µM; in the test on ACHN renal, 4.26 µM; in the test on HOP-92 NSCLC, 2.67 µM; in the test with HCT-116 colon, 11.7 µM. Besides, the TGI stood at 4.48 µM in the test on NCI-H23 lung; 4.53 µM in the test on HT29 colon; 25.3 µM in the test with UO-31 renal; 52.7 µM in the test on NCI-H460 lung; 12.9 µM with OVCAR-4 ovarian; 26.6 µM in the test with SK-OV-3 ovarian. The TGI in the test on HCC-2998 colon was determined as 9.23 µM; in the test on ACHN renal, 8.38 µM; in the test with HOP-92 NSCLC it was 5.42 µM; in the test with HCT-116 colon, 23.9 µM.

As for `CNC(=O)c1ccc(N2CCN(Cc3ccc4nc(C)c(=O)[nH]c4c3F)CC2)c(F)n1`, the GI50 was 70.6 µM in the test with NCI-H23 lung; over 100 µM in the test with HT29 colon; over 100 µM in the test with UO-31 renal; 73.8 µM in the test with NCI-H460 lung; over 100 µM in the test with OVCAR-4 ovarian; over 100 µM in the test on SK-OV-3 ovarian. For the same molecule, the GI50 with HCC-2998 colon was over 100 µM; in the test on ACHN renal it was over 100 µM; with HOP-92 NSCLC, 21.3 µM; in the test on HCT-116 colon, 91.4 µM. Further, the TGI in the test on NCI-H23 lung, with HT29 colon, in the test on UO-31 renal, in the test with NCI-H460 lung, with OVCAR-4 ovarian and in the test with SK-OV-3 ovarian was over 100 µM each time. In addition, the TGI with HCC-2998 colon, with ACHN renal, in the test with HOP-92 NSCLC and with HCT-116 colon was over 100 µM in each case.

As for `[Cl-].[O-]/N=C(\c1ccccc1)c1ccccn1.[O-]/N=C(\c1ccccc1)c1ccccn1.[O-]/N=C(\c1ccccc1)c1ccccn1.[Sm+3]`, the GI50 in the test on NCI-H23 lung was 32.8 µM; in the test with HT29 colon, 44 µM; in the test with UO-31 renal, 18.7 µM; in the test with NCI-H460 lung, 27.3 µM; with OVCAR-4 ovarian it was 43.3 µM; in the test with SK-OV-3 ovarian, 32.6 µM. Further, the GI50 in the test with HCC-2998 colon is 25.7 µM; in the test on ACHN renal, 29.3 µM; with HOP-92 NSCLC it was 23.6 µM; in the test with HCT-116 colon it was 41.2 µM. Also, the TGI in the test on NCI-H23 lung was 87.1 µM; in the test on HT29 colon it was over 100 µM; with UO-31 renal, 55.5 µM; in the test with NCI-H460 lung, over 100 µM; with OVCAR-4 ovarian, over 100 µM; with SK-OV-3 ovarian it was over 100 µM. Moreover, the TGI in the test with HCC-2998 colon was over 100 µM; in the test on ACHN renal, over 100 µM; with HOP-92 NSCLC, 87.8 µM; in the test with HCT-116 colon it was over 100 µM.

As for `COc1cc(OC)cc(N(CCNC(C)C)c2ccc3ncc(-c4cnn(C)c4)nc3c2)c1`, the GI50 is 6.9 µM in the test with NCI-H23 lung; 3.72 µM in the test on HT29 colon; 2.23 µM in the test with UO-31 renal; 5.25 µM with NCI-H460 lung; 2.25 µM in the test on OVCAR-4 ovarian; 1.99 µM in the test with SK-OV-3 ovarian. In addition, the GI50 was 11.2 µM with HCC-2998 colon, 2.18 µM in the test on ACHN renal, 3.32 µM in the test with HOP-92 NSCLC and 4.55 µM in the test on HCT-116 colon. The TGI turned out to be 20.9 µM in the test on NCI-H23 lung; 15.7 µM in the test with HT29 colon; 12.3 µM in the test on UO-31 renal; 18.1 µM in the test on NCI-H460 lung; 14.8 µM in the test with OVCAR-4 ovarian; 6 µM in the test with SK-OV-3 ovarian. Further, the TGI with HCC-2998 colon is 24.9 µM; in the test with ACHN renal, 8.12 µM; with HOP-92 NSCLC it was 15.5 µM; in the test with HCT-116 colon it was 17 µM.

As to `CC(C)=CCc1c(OC(=O)c2c(C)cc(O)cc2O)cc(CO)c(CO)c1O`, the TGI in the test with NCI-H23 lung came to 33 µM; in the test on HT29 colon it was 42.6 µM; in the test on UO-31 renal, 34.4 µM; in the test on NCI-H460 lung, 39.2 µM; with OVCAR-4 ovarian, 38.2 µM; in the test with SK-OV-3 ovarian, 30.9 µM. Also, the TGI is 31.7 µM with HCC-2998 colon, 37.2 µM in the test on ACHN renal, 52.3 µM in the test on HOP-92 NSCLC and 43.9 µM with HCT-116 colon.

`CCCC(=O)NC1=C(Cl)C(=O)c2ccccc2C1=O`: the TGI in the test on NCI-H23 lung stood at 10.3 µM; with HT29 colon, 27.7 µM; in the test with UO-31 renal it was 8.99 µM; in the test with NCI-H460 lung, 20 µM; in the test on OVCAR-4 ovarian, 17.1 µM; with SK-OV-3 ovarian, 27.1 µM. In addition, the TGI is 16.3 µM with HCC-2998 colon, 3.83 µM with ACHN renal, 3.22 µM in the test on HOP-92 NSCLC and 4.52 µM in the test on HCT-116 colon.
